According to the NIST ThermoML archive (doi:10.1016/j.jct.2018.05.016):

Experiment: mn = molality of the nth substance listed, in mol/kg
Conditions: 100 kPa, Liquid; for speed of sound: Frequency=3 MHz, Single path-length method; for mass density: Vibrating tube method

OCC(O)CO [glycerol] + O
Conditions | mass density, 293.15 K [kg/m3] | mass density, 298.15 K [kg/m3] | mass density, 303.15 K [kg/m3] | mass density, 308.15 K [kg/m3] | speed of sound, 293.15 K [m/s] | speed of sound, 298.15 K [m/s] | speed of sound, 303.15 K [m/s] | speed of sound, 308.15 K [m/s]
m1 = 0.01 | 998.45 | 997.31 | 995.87 | 994.25 | 1483.2 | 1497 | 1509.3 | 1519.9
m1 = 0.03 | 998.87 | 997.71 | 996.3 | 994.68 | 1484 | 1497.8 | 1510 | 1520.6
m1 = 0.05 | 999.29 | 998.12 | 996.72 | 995.09 | 1484.8 | 1498.6 | 1510.7 | 1521.2

O [water] + OCC(O)CO
m2 = 0
Conditions | speed of sound [m/s]
298.15 K | 1495.9
303.15 K | 1508.5
308.15 K | 1519.1

OCCOCCO [diethylene glycol] + O
Conditions | mass density, m1 = 0.09849 [kg/m3] | mass density, m1 = 0.1974 [kg/m3] | mass density, m1 = 0.295 [kg/m3] | mass density, m1 = 0.4101 [kg/m3] | mass density, m1 = 0.5006 [kg/m3] | speed of sound, m1 = 0.09849 [m/s] | speed of sound, m1 = 0.1974 [m/s] | speed of sound, m1 = 0.295 [m/s] | speed of sound, m1 = 0.4101 [m/s] | speed of sound, m1 = 0.5006 [m/s]
293.15 K | 999.65 | 1001.03 | 1002.36 | 1003.86 | 1004.99 | 1487.7 | 1493.1 | 1498.1 | 1504.1 | 1508.3
303.15 K | 997.07 | 998.39 | 999.64 | 1001.05 | 1002.15 | 1513.1 | 1517.6 | 1522 | 1526.9 | 1530.6

OCCOCCOCCO [triethylene glycol] + O
Conditions | mass density, m1 = 0.0965 [kg/m3] | mass density, m1 = 0.2002 [kg/m3] | mass density, m1 = 0.292 [kg/m3] | mass density, m1 = 0.3986 [kg/m3] | mass density, m1 = 0.4988 [kg/m3] | speed of sound, m1 = 0.0965 [m/s] | speed of sound, m1 = 0.2002 [m/s] | speed of sound, m1 = 0.292 [m/s] | speed of sound, m1 = 0.3986 [m/s] | speed of sound, m1 = 0.4988 [m/s]
293.15 K | 1000.31 | 1002.46 | 1004.29 | 1006.36 | 1008.22 | 1489.9 | 1498 | 1504.8 | 1513.1 | 1520.5
303.15 K | 997.73 | 999.86 | 1001.67 | 1003.69 | 1005.54 | 1514.9 | 1521.8 | 1528 | 1535.1 | 1541.7

O [water] + OCCO
Conditions | speed of sound [m/s]
303.15 K, m2 = 0 | 1508.5

O [water] + OCCOCCOCCO
Conditions | speed of sound [m/s]
303.15 K, m2 = 0 | 1508.5

O [water] + OCCOCCO
Conditions | speed of sound [m/s]
303.15 K, m2 = 0 | 1508.5

OCCO [1,2-ethanediol] + O
Conditions | mass density, m1 = 0.09889 [kg/m3] | mass density, m1 = 0.1989 [kg/m3] | mass density, m1 = 0.2997 [kg/m3] | mass density, m1 = 0.3948 [kg/m3] | mass density, m1 = 0.5016 [kg/m3] | speed of sound, m1 = 0.09889 [m/s] | speed of sound, m1 = 0.1989 [m/s] | speed of sound, m1 = 0.2997 [m/s] | speed of sound, m1 = 0.3948 [m/s] | speed of sound, m1 = 0.5016 [m/s]
293.15 K | 999.06 | 999.88 | 1000.68 | 1001.41 | 1002.2 | 1485.3 | 1488.3 | 1491.2 | 1493.9 | 1496.8
303.15 K | 996.47 | 997.26 | 998.03 | 998.73 | 999.48 | 1511.1 | 1513.8 | 1516.2 | 1518.7 | 1521.2
